Columns and labels:
[1] = test system: Bacteria; assay: Test of elimination of bacteria in seawater (ballast water) by hydroxyl radical solution; type: cell-based; conditions: OH concentration 0.63 mg/L
Description: (§1) Free radical generator of the present invention was made of anode electrode 22, cathode electrode 21, dielectric substance layer 24 and septum 23. Strong electric field of 250-600 Td was formed between the anode electrode and cathode electrode. […] The undissolved free radicals were removed by residual free radical treater 13. High frequency electric source made from transformer 5, invertor 6 and controller 7 was used to supply electric source to free radical generator 3. Free radical concentration measuring apparatus 4 was used to measure the concentration of free radical produced while the hydroxyl radical solution concentration analyzer 14 was used to measure the concentration of hydroxyl radical solution. Untreated ballast water was suctioned by pump 19 into conveying pipe and filtered by filter 16 (FIG. 2). A part of them was taken out and was processed by free radical generating unit 15 into hydroxyl radical solution which was then mixed in liquid-liquid mixer 20 with ballast water conveyed in pipe and flowed through flow meter 17 and valve 18. The effectiveness of the elimination of single cell alga, protozoans and bacteria was illustrated in Table 1.

[2] = test system: single cell alga; assay: Test of elimination of single cell alga in seawater (ballast water) by hydroxyl radical solution; type: cell-based; conditions: OH concentration 0.63 mg/L
Description: as §1

[3] = test system: Protozoan; assay: Test of elimination of protozoan in seawater (ballast water) by hydroxyl radical solution; type: cell-based; conditions: OH concentration 0.63 mg/L
Description: as §1

[4] = test system: bacteria, single cell alga, protozoan, spore and vibrio; assay: Time and concentration needed to kill microorganisms in ballast water by hydroxyl radical; type: cell-based
Description: as §1
The time necessary for elimination of single cell alga, protozoan, bacteria and the like was extremely short. […]

[5] = Decomposition of residual hydroxyl radicals; type: physicochemical; conditions: treated ballast water
Protocol: The residual hydroxyl radicals were decomposed after 20 min into H2O, O2 and the like and there was no any residual chemical reagent left. Therefore the method for treating ballast water by using hydroxyl radicals solution is a green effective method.

hydroxyl radical [OH]
Lethality [1]: 100%
Microorganism concentration ([1]; untreated 1.9 × 10^5): not detectable
Lethality [2]: 100%
Microorganism concentration ([2]; untreated 6.0 × 10^4): not detectable
Lethality [3]: 100%
Microorganism concentration ([3]; untreated 4.4 × 10^4): not detectable
time needed for elimination of microorganism ([4]; from curve of time against lethality, FIG. 4): about 4 s
concentration at which killing is feasible ([4]; single cell alga, protozoan, spore, bacteria, vibrio in ballast water): 0.6 to 0.7 mg/L
time after which residual hydroxyl radicals were decomposed into H2O, O2 [5]: 20 min

Source: US20040251215A1, “Method for killing organicsms in the course of conveying ballast water in ships and apparatus thereof” (priority 2003, published 2004)
